# Measurements taken from ChEMBL document CHEMBL3885881, “DrugMatrix”.
# Species on record: Rattus norvegicus
# Experiment: DrugMatrix - Regimen: Daily Repeat
# Format: toxicity, organism-based, Sprague-Dawley
# Set-up: regimen Daily Repeat, gender Male, age 6-8 weeks
# Conditions: in vivo, po, route oral GAVAGE, […]; for ABSOLUTE BASOPHIL / ABSOLUTE EOSINOPHIL / ABSOLUTE LYMPHOCYTE / ABSOLUTE SEGMENTED NEUTROPHIL / BASOPHIL / EOSINOPHIL / ERYTHROCYTE COUNT / HEMATOCRIT / HEMOGLOBIN / LYMPHOCYTE / MEAN CORPUSCULAR HEMOGLOBIN / MEAN CORPUSCULAR HEMOGLOBIN CONCENTRATION / MEAN CORPUSCULAR VOLUME / MONOCYTE / NUCLEATED RED BLOOD CELLS / PLATELET COUNT: tissue Blood; for ALANINE AMINOTRANSFERASE / ALBUMIN / ALKALINE PHOSPHATASE / ASPARTATE AMINOTRANSFERASE / BLOOD UREA NITROGEN / CARBON DIOXIDE / CHOLESTEROL / CREATINE PHOSPHOKINASE / CREATININE / GLUCOSE / LACTATE DEHYDROGENASE / POTASSIUM / SODIUM / TOTAL BILIRUBIN / TOTAL PROTEIN / URIC ACID: tissue Plasma
# [1] = 0 mg/kg, 72 h, dose level Control, time 3 day
# [2] = 0 mg/kg, 120 h, dose level Control, time 5 day
# [3] = 20 mg/kg, 72 h, dose level Low, time 3 day
smiles,measurement,setting,value
COc1ccccc1OCCNCC(O)COc1cccc2[nH]c3ccccc3c12 (stereo unspecified) [CARVEDILOL],ABSOLUTE BASOPHIL,[1],0 CELLS/uL
same,ABSOLUTE EOSINOPHIL,[1],0 CELLS/uL
same,ABSOLUTE LYMPHOCYTE,[1],9244.83 CELLS/uL
same,ABSOLUTE SEGMENTED NEUTROPHIL,[1],869.83 CELLS/uL
same,BASOPHIL,[1],0%
same,EOSINOPHIL,[1],0%
same,ERYTHROCYTE COUNT,[1],5.43 x10E6/uL
same,HEMATOCRIT,[1],34.03%
same,HEMOGLOBIN,[1],13.27 G/DL
same,LYMPHOCYTE,[1],90.33%
same,MEAN CORPUSCULAR HEMOGLOBIN,[1],24.48 pg
same,MEAN CORPUSCULAR HEMOGLOBIN CONCENTRATION,[1],39.03 G/DL
same,MEAN CORPUSCULAR VOLUME,[1],62.75 fL
same,MONOCYTE,[1],1%
same,NUCLEATED RED BLOOD CELLS,[1],0.17 /100WBC
same,PLATELET COUNT,[1],989 x10E3/uL
same,ALANINE AMINOTRANSFERASE,[1],77 u/L
same,ALBUMIN,[1],3.97 G/DL
same,ALKALINE PHOSPHATASE,[1],464.83 u/L
same,ASPARTATE AMINOTRANSFERASE,[1],89.83 u/L
same,BLOOD UREA NITROGEN,[1],12.17 mg/dL
same,CARBON DIOXIDE,[1],34.17 mmol/L
same,CHOLESTEROL,[1],75.17 mg/dL
same,CREATINE PHOSPHOKINASE,[1],367.67 u/L
same,CREATININE,[1],0.16 mg/dL
same,GLUCOSE,[1],142.67 mg/dL
same,LACTATE DEHYDROGENASE,[1],139.33 u/L
same,POTASSIUM,[1],6.38 MEQ/L
same,SODIUM,[1],143.2 MEQ/L
same,TOTAL BILIRUBIN,[1],0.2 mg/dL
same,TOTAL PROTEIN,[1],5.77 G/DL
same,URIC ACID,[1],0.7 mg/dL
same,ABSOLUTE BASOPHIL,[2],0 CELLS/uL
same,ABSOLUTE EOSINOPHIL,[2],0 CELLS/uL
same,ABSOLUTE LYMPHOCYTE,[2],8295.33 CELLS/uL
same,ABSOLUTE SEGMENTED NEUTROPHIL,[2],970 CELLS/uL
same,BASOPHIL,[2],0%
same,EOSINOPHIL,[2],0%
same,ERYTHROCYTE COUNT,[2],5.74 x10E6/uL
same,HEMATOCRIT,[2],36.22%
same,HEMOGLOBIN,[2],13.85 G/DL
same,LYMPHOCYTE,[2],88.67%
same,MEAN CORPUSCULAR HEMOGLOBIN,[2],24.13 pg
same,MEAN CORPUSCULAR HEMOGLOBIN CONCENTRATION,[2],38.25 G/DL
same,MEAN CORPUSCULAR VOLUME,[2],63.08 fL
same,MONOCYTE,[2],1%
same,NUCLEATED RED BLOOD CELLS,[2],0.17 /100WBC
same,PLATELET COUNT,[2],883.83 x10E3/uL
same,ALANINE AMINOTRANSFERASE,[2],64.5 u/L
same,ALBUMIN,[2],4.12 G/DL
same,ALKALINE PHOSPHATASE,[2],425.67 u/L
same,ASPARTATE AMINOTRANSFERASE,[2],88.5 u/L
same,BLOOD UREA NITROGEN,[2],14.17 mg/dL
same,CARBON DIOXIDE,[2],30.5 mmol/L
same,CHOLESTEROL,[2],55.33 mg/dL
same,CREATINE PHOSPHOKINASE,[2],287.17 u/L
same,CREATININE,[2],0.2 mg/dL
same,GLUCOSE,[2],162.83 mg/dL
same,LACTATE DEHYDROGENASE,[2],111.33 u/L
same,POTASSIUM,[2],5.13 MEQ/L
same,SODIUM,[2],143.93 MEQ/L
same,TOTAL BILIRUBIN,[2],0.17 mg/dL
same,TOTAL PROTEIN,[2],5.9 G/DL
same,URIC ACID,[2],0.77 mg/dL
same,ABSOLUTE BASOPHIL,[3],0 CELLS/uL
same,ABSOLUTE EOSINOPHIL,[3],67.33 CELLS/uL
same,ABSOLUTE LYMPHOCYTE,[3],15458 CELLS/uL
same,ABSOLUTE SEGMENTED NEUTROPHIL,[3],1844 CELLS/uL
same,BASOPHIL,[3],0%
same,EOSINOPHIL,[3],0.33%
same,ERYTHROCYTE COUNT,[3],5.47 x10E6/uL
same,HEMATOCRIT,[3],34.53%
same,HEMOGLOBIN,[3],13.3 G/DL
same,LYMPHOCYTE,[3],89.33%
same,MEAN CORPUSCULAR HEMOGLOBIN,[3],24.47 pg
same,MEAN CORPUSCULAR HEMOGLOBIN CONCENTRATION,[3],38.5 G/DL
same,MEAN CORPUSCULAR VOLUME,[3],63.47 fL
same,MONOCYTE,[3],0.33%
same,NUCLEATED RED BLOOD CELLS,[3],0 /100WBC
same,PLATELET COUNT,[3],907.33 x10E3/uL
same,ALANINE AMINOTRANSFERASE,[3],76.33 u/L
same,ALBUMIN,[3],4.1 G/DL
same,ALKALINE PHOSPHATASE,[3],486 u/L
same,ASPARTATE AMINOTRANSFERASE,[3],96.67 u/L
same,BLOOD UREA NITROGEN,[3],11 mg/dL
same,CARBON DIOXIDE,[3],32.67 mmol/L
same,CHOLESTEROL,[3],75.67 mg/dL
same,CREATINE PHOSPHOKINASE,[3],501.33 u/L
same,CREATININE,[3],0.24 mg/dL
same,GLUCOSE,[3],131 mg/dL
same,LACTATE DEHYDROGENASE,[3],152.67 u/L
same,POTASSIUM,[3],5.98 MEQ/L
same,SODIUM,[3],145.6 MEQ/L
same,TOTAL BILIRUBIN,[3],0.17 mg/dL
same,TOTAL PROTEIN,[3],5.8 G/DL
same,URIC ACID,[3],0.6 mg/dL
